In patent publication US11480583B2, “Method for the diagnosis and treatment of essential primary hypertension” (Universiteit Maastricht, priority 2020, dated 2022):
“Also recorded” adds a separate entry of the source.

Legend:
[1] = test system: femoral arteries of aged NOX5 KI and WT mice; assay: Wire myograph, relaxing responses of isolated femoral arteries; design: species or system mouse; conditions: for Relaxation induced by BAY 60-2770, WT versus KI / Endothelium-independent relaxation induced by PAPA/NO, WT versus KI: femoral arteries, 0.01-10 μM; for Reversal of impaired Ach-induced relaxation by antioxidant: femoral arteries of aged KI mice contracted with 10 μM phenylephrine, Ach 10 μM
Protocol: After mice were sacrificed, thoracic aortae, femoral and saphenous arteries were dissected free from perivascular adipose tissue and mounted in a wire myograph (DMT, Aarhus, DK). The organ chamber was filled with Krebs-Ringer bicarbonate-buffered salt solution (KRB) that was continuously aerated with 95% O2/5% CO2 and maintained at 37° C. Passive stretch procedure was performed to mimic the physiologically relevant internal lumen diameter as previously described. Arterial contractile and relaxing responses were recorded at lumen diameters corresponding to a distending pressure of 100 mmHg in thoracic aorta and femoral artery and at 90% of this diameter in the resistance-sized saphenous artery. […] The diameter tension relationships were constructed according to the law of Laplace for a cylindrical tube: P=T/R (with P for transmural pressure, T for wall tension and R for the lumen radius of the tube). Consequently, wall stiffness can be determined equally by recording 1) changes in tension in response to imposed changes in radius (wire myography) or 2) changes in radius in response to changes in transmural pressure (pressure myography). Here we used the former approach because it has a higher throughput than the latter. Stress-strain relationships and even better “incremental elastic (Young's) modulus” (which require additional recording of wall thickness) only come into play to discriminate between structural and material property contributions to changes in arterial stiffness. Part of the isolated thoracic aorta was studied in the absence and part in the continuous presence of 10 μM indomethacin to inhibit production of prostaglandins that can act as endothelium-derived vasoactive factors in this vessel. The vessels were tested for their contractile response to 40 mM K+, concentration-response curves of phenylephrine (0.01 to 100 μM) and endothelin-1 (1-256 nM) followed by acetylcholine (Ach) (0.01 to 100 μM), PAPA/NO (0.01-10 μM) or Bay60-2770 (0.01-10 μM)-induced relaxations. The wall tension of the vessel segment was continuously recorded with LabChart Pro (ADInstruments, Oxford, UK).

[2] = test system: femoral arteries of aged NOX5 KI mice; assay: Superoxide formation, DHE staining of femoral artery cryo-sections; design: species or system mouse; conditions: pre-treatment with 500 μM L-NAME for 30 min at 37° C.
Protocol: Superoxide was measured in femoral arteries using the florescence dye dihydroethidium (DHE) (Thermo Scientific Technology, The Netherlands). Frozen femoral arteries cryo-sections were fixated in 4% paraformaldehyde (PFA) in PBS and then incubated with 2 μM DHE for 30 minutes at 37° C. After three washing steps with PBS, slices were incubated with DAPI (Sigma-Aldrich, The Netherlands) […] for 10 min. Sections were washed in PBS and then mounted using a Dako Fluorescence Mounting Medium ([…], Agilent Technologies). Immunofluorescent signals were viewed using a Leica DM13000 B fluorescence microscope. Some arteries were pre-treated with 500 μM L-NAME for 30 min at 37° C. before performing the DHE staining.

[3] = test system: saphenous arteries of aged NOX5 KI and WT mice; assay: Wire myograph, relaxing responses of isolated saphenous arteries; design: species or system mouse; conditions: for Endothelium-independent relaxation induced by PAPA/NO, WT versus KI: saphenous arteries, 0.01-10 μM
Protocol: (§1) After mice were sacrificed, thoracic aortae, femoral and saphenous arteries were dissected free from perivascular adipose tissue and mounted in a wire myograph (DMT, Aarhus, DK). The organ chamber was filled with Krebs-Ringer bicarbonate-buffered salt solution (KRB) that was continuously aerated with 95% O2/5% CO2 and maintained at 37° C. Passive stretch procedure was performed to mimic the physiologically relevant internal lumen diameter as previously described. Arterial contractile and relaxing responses were recorded at lumen diameters corresponding to a distending pressure of 100 mmHg in thoracic aorta and femoral artery and at 90% of this diameter in the resistance-sized saphenous artery. […] The diameter tension relationships were constructed according to the law of Laplace for a cylindrical tube: P=T/R (with P for transmural pressure, T for wall tension and R for the lumen radius of the tube). Consequently, wall stiffness can be determined equally by recording 1) changes in tension in response to imposed changes in radius (wire myography) or 2) changes in radius in response to changes in transmural pressure (pressure myography). Here we used the former approach because it has a higher throughput than the latter. Stress-strain relationships and even better “incremental elastic (Young's) modulus” (which require additional recording of wall thickness) only come into play to discriminate between structural and material property contributions to changes in arterial stiffness. Part of the isolated thoracic aorta was studied in the absence and part in the continuous presence of 10 μM indomethacin to inhibit production of prostaglandins that can act as endothelium-derived vasoactive factors in this vessel. […] The wall tension of the vessel segment was continuously recorded with LabChart Pro (ADInstruments, Oxford, UK).

[4] = test system: thoracic aortae of aged NOX5 KI and WT mice; assay: Wire myograph, responses of isolated thoracic aortae; design: species or system mouse; conditions: for Endothelium-independent relaxation induced by PAPA/NO, WT versus KI: thoracic aortae with/without indomethacin, 0.01-10 μM
Protocol: as §1

[5] = test system: elevated blood pressure; conditions: by improving endothelial function; cited from earlier work
[6] = test system: elevated blood pressure induced by NOS uncoupling; conditions: cited from earlier work

For `O=C(O)CCCCN(CCc1cc(F)ccc1OCc1ccc(-c2ccc(C(F)(F)F)cc2)cc1)Cc1ccc(C(=O)O)cc1` [BAY 60-2770], the “Relaxation induced by BAY 60-2770, WT versus KI” value [1] was “Neither the PAPA/NO (FIGS. 13 A-C) nor the BAY 60-2770 response (FIG. 11 D) differed between WT and KI mice” and the “Relaxation induced by BAY 60-2770, WT versus KI” value ([1]; listed as Bay60-2770) was “did not differ”.
With `COC(=O)[C@@H](N)CCCNC(=N)N[N+](=O)[O-]` [L-NAME] the “Superoxide formation (DHE staining), increase in KI versus WT” value [2] was “inhibited”, the “Effect of L-NAME on Ach-induced relaxation” value (“Effect of L-NAME” for short) ([3]; saphenous arteries of aged KI and WT mice contracted with endothelin-1, 100 μM L-NAME) was “did not modify the relaxing effects of Ach” and the “Effect of L-NAME” value ([1]; femoral arteries of aged KI and WT mice contracted with 256 nM endothelin-1, 100 μM L-NAME) was “reversed”. For the same compound, the “Effect of L-NAME” value ([4]; thoracic aortae of aged KI and WT mice contracted with 256 nM endothelin-1, 100 μM L-NAME) was “reversed”.
With `CC(=O)N[C@@H](CS)C(=O)O` [N-acetylcysteine] the “Reversal of impaired Ach-induced relaxation by antioxidant” value ([1]; 10 μM N-acetylcysteine) was “not reversed”.
In the case of `CCCN(CCCN)/[N+]([O-])=N/O` [PAPA/NO], the “Endothelium-independent relaxation induced by PAPA/NO, WT versus KI” value [3] is reported as “Neither the PAPA/NO (FIGS. 13 A-C) nor the BAY 60-2770 response (FIG. 11 D) differed between WT and KI mice”, the “Endothelium-independent relaxation induced by PAPA/NO, WT versus KI” value ([3]; listed as PAPA NO) is reported as “did not differ” and the “Endothelium-independent relaxation induced by PAPA/NO, WT versus KI” value [1] is reported as “Neither the PAPA/NO (FIGS. 13 A-C) nor the BAY 60-2770 response (FIG. 11 D) differed between WT and KI mice”. The “Endothelium-independent relaxation induced by PAPA/NO, WT versus KI” value ([1]; listed as PAPA NO) was “did not differ”, the “Endothelium-independent relaxation induced by PAPA/NO, WT versus KI” value [4] was “Neither the PAPA/NO (FIGS. 13 A-C) nor the BAY 60-2770 response (FIG. 11 D) differed between WT and KI mice” and the “Endothelium-independent relaxation induced by PAPA/NO, WT versus KI” value ([4]; listed as PAPA NO) was “did not differ”.
In the case of `Nc1nc2ncc(CNc3ccc(C(=O)N[C@@H](CCC(=O)O)C(=O)O)cc3)nc2c(=O)[nH]1` [folic acid], the “Reduction of elevated blood pressure, clinical” value [5] is given as “clinically effective to reduce elevated blood pressure”.
In the case of `C[C@H](O)C(=O)C1=Nc2c(nc(N)[nH]c2=O)NC1` [sepiapterin], the “Ach-induced relaxation after pre-treatment with sepiapterin” value ([1]; femoral arteries of aged KI mice pre-contracted with phenylephrine, sepiapterin 100 μM, compared with WT) is given as “improved relaxation in KI; also recorded: greatly improved and became indistinguishable from those in WT” and the “Blood pressure lowering, preclinical” value [6] is given as “lower elevated blood pressure induced by NOS uncoupling”.
With `CC1(C)CC(O)CC(C)(C)N1[O]` [tempol] the “Reversal of impaired Ach-induced relaxation by antioxidant” value ([1]; 100 μM tempol) was “not reversed”.
